Measured values taken from DBAASP.
≈ marks a conversion by molar mass, not a printed value.

Legend:
Assay in all cases: ≥ marks a high value that may be exact or a test limit, other limits are often not marked, values filed in µg/mL are converted to µM
Escherichia coli BW25113 = test system: Escherichia coli BW25113
Escherichia coli J2210 = test system: Escherichia coli J2210
Escherichia coli JJ2489 = test system: Escherichia coli JJ2489
Escherichia coli JW0013 = test system: Escherichia coli JW0013
[1] = test system: Escherichia coli JW0368 ΔsbmA
[2] = test system: Escherichia coli JW2778 ΔygdD
Escherichia coli MC1041 = test system: Escherichia coli MC1041
[3] = test system: Salmonella enterica subsp. enterica serovar Enteritidis MH91989
[4] = test system: Salmonella typhimurium SL1344
Enterobacter cloacae = test system: Enterobacter cloacae
[5] = test system: Escherichia coli ATCC 25922
[6] = test system: Escherichia coli ATCC 35218
Escherichia coli UTI89 = test system: Escherichia coli UTI89
[7] = test system: Klebsiella pneumoniae ATCC 700603
[8] = test system: Klebsiella pneumoniae NDM-1
Klebsiella pneumoniae = test system: Klebsiella pneumoniae
[9] = test system: Pseudomonas aeruginosa ATCC 27853
[10] = test system: Pseudomonas aeruginosa PAO1
Vibrio cholerae = test system: Vibrio cholerae
Escherichia coli K-12 = test system: Escherichia coli K-12
[11] = test system: Pseudomonas aeruginosa PA214
Bacillus subtilis = test system: Bacillus subtilis
Enterococcus faecalis = test system: Enterococcus faecalis
Escherichia coli O111:B4 = test system: Escherichia coli O111:B4
[12] = test system: Pseudomonas aeruginosa H103
[13] = test system: Salmonella typhimurium C610
[14] = test system: Staphylococcus aureus K147
[15] = test system: Staphylococcus aureus SAP 0017
[16] = test system: Staphylococcus epidermidis
[17] = test system: Bacillus amyloliquefaciens ATCC 23842
[18] = test system: Bacillus cereus ATCC 14579
[19] = test system: Bacillus licheniformis ATCC 14580
[20] = test system: Bacillus subtilis ATCC 6051
[21] = test system: Enterococcus faecalis 1F-1
[22] = test system: Enterococcus faecium 5F-10
[23] = test system: Proteus mirabilis ATCC 35659
[24] = test system: Salmonella enterica ATCC H9812
[25] = test system: Staphylococcus aureus ATCC 29213
[26] = test system: Escherichia coli CVCC 1515
Escherichia coli K88 = test system: Escherichia coli K88
Escherichia coli UB1005 = test system: Escherichia coli UB1005
[27] = test system: Salmonella enterica subsp. enterica serovar Typhimurium ATCC 14028
[28] = test system: Staphylococcus epidermidis ATCC 12228

`CC(C)C[C@H](NC(=O)[C@H](CCCN=C(N)N)NC(=O)[C@@H]1CCCN1C(=O)[C@H](CCCN=C(N)N)NC(=O)[C@@H]1CCCN1C(=O)[C@@H]1CCCN1C(=O)[C@H](CCCN=C(N)N)NC(=O)[C@@H]1CCCN1C(=O)[C@H](CCC(N)=O)NC(=O)[C@@H]1CCCN1C(=O)[C@H](CCCN=C(N)N)NC(=O)[C@H](Cc1ccc(O)cc1)NC(=O)[C@@H](NC(=O)[C@@H]1CCCN1C(=O)[C@H](CCCN=C(N)N)NC(=O)[C@H](CC(N)=O)NC(=O)[C@H](CC(N)=O)NC(=O)CN)C(C)C)C(=O)O` [GNNRPVYRPQPRPPRPRL] was tested, and the MIC (Escherichia coli BW25113) was 0.062 µM (≈ 0.135 µg/mL), the MIC (Escherichia coli J2210) was 0.126 µM (≈ 0.273 µg/mL) and the MIC (Escherichia coli JJ2489) was 0.126 µM (≈ 0.273 µg/mL). The MIC (Escherichia coli JW0013) was 0.048 µM (≈ 0.104 µg/mL), the MIC [1] was 0.096 µM (≈ 0.208 µg/mL) and the MIC [2] was 0.126 µM (≈ 0.273 µg/mL). It also gave an MIC (Escherichia coli MC1041) of 0.096 µM (≈ 0.208 µg/mL), an MIC [3] of 0.067 µM (≈ 0.145 µg/mL) and an MIC [4] of 0.126 µM (≈ 0.273 µg/mL).
`CC[C@H](C)[C@H](NC(=O)[C@@H](NC(=O)[C@@H]1CCCN1C(=O)[C@H](CO)NC(=O)[C@H](CC(C)C)NC(=O)[C@H](CCCCN)NC(=O)[C@H](CCCCN)NC(=O)[C@H](Cc1ccccc1)NC(=O)[C@H](CC(C)C)NC(=O)[C@H](CCCCN)NC(=O)[C@H](CCCCN)NC(=O)[C@H](CC(C)C)NC(=O)[C@H](CCCCN)NC(=O)[C@H](CCCCN)NC(=O)[C@H](CCCN=C(N)N)NC(=O)[C@H](Cc1ccccc1)NC(=O)[C@H](CCCN=C(N)N)NC(=O)[C@H](CCCCN)NC(=O)[C@H](Cc1ccccc1)NC(=O)[C@H](CCCN=C(N)N)NC(=O)CN)C(C)C)C(=O)N1CCC[C@H]1C(=O)N[C@@H](CC(C)C)C(=O)N[C@@H](CC(C)C)C(=O)N[C@@H](Cc1cnc[nH]1)C(=O)N[C@@H](CC(C)C)C(=O)NCC(=O)O` [GRFKRFRKKLKKLFKKLSPVIPLLHLG] gave an MIC (Enterobacter cloacae) of 4 µM (≈ 13 µg/mL), an MIC [5] of 4 µM (≈ 13 µg/mL) and an MIC [6] of 4 µM (≈ 13 µg/mL). For the same compound, the MIC (Escherichia coli UTI89) was 4 µM (≈ 13 µg/mL), the MIC [7] was 4 µM (≈ 13 µg/mL) and the MIC [8] was 4 µM (≈ 13 µg/mL). The MIC (Klebsiella pneumoniae) was 5.66 µM (≈ 18.4 µg/mL), the MIC [9] was 4 µM (≈ 13 µg/mL) and the MIC [10] was 4 µM (≈ 13 µg/mL). For the same compound, the MIC (Vibrio cholerae) was 2.83 µM (≈ 9.19 µg/mL).
With `C[C@H](NC(=O)[C@H](C)NC(=O)[C@H](CCCCN)NC(=O)[C@H](Cc1ccccc1)NC(=O)[C@H](C)NC(=O)[C@H](CCCCN)NC(=O)[C@H](C)NC(=O)[C@H](Cc1c[nH]c2ccccc12)NC(=O)[C@H](C)NC(=O)[C@H](CCCCN)NC(=O)[C@H](C)NC(=O)[C@H](Cc1ccccc1)NC(=O)[C@H](CCCCN)NC(=O)[C@H](CCCCN)NC(=O)[C@H](C)NC(=O)[C@H](C)NC(=O)[C@@H](N)CCCCN)C(N)=O` [KAAKKFAKAWAKAFKAA] the MIC (Escherichia coli K-12) was 12.5 µM (≈ 22.9 µg/mL), the MIC [11] was no less than 50 µM and the MIC [10] was 50 µM (≈ 91.8 µg/mL).
With `CC(C)C[C@H](NC(=O)[C@H](CCCCN)NC(=O)[C@H](CCCCN)NC(=O)[C@H](Cc1ccccc1)NC(=O)[C@H](Cc1ccccc1)NC(=O)[C@H](CO)NC(=O)[C@H](CCCCN)NC(=O)[C@@H](N)CCCCN)C(=O)N[C@H](C(=O)N[C@@H](CO)C(=O)N[C@H](C(=O)N[C@@H](C)C(=O)N[C@@H](CO)C(=O)N[C@@H](CO)C(=O)N[C@H](C(=O)N[C@@H](CC(C)C)C(=O)N[C@@H](CO)C(=O)O)C(C)C)C(C)C)[C@@H](C)O` [KKSFFKKLTSVASSVLS] the MIC (Bacillus subtilis) was no less than 68.9 µM, the MIC (Enterococcus faecalis) was no less than 68.9 µM and the MIC (Escherichia coli O111:B4) was no less than 68.9 µM. For the same compound, the MIC [12] was no less than 68.9 µM, the MIC [13] was no less than 68.9 µM and the MIC [14] was no less than 68.9 µM. For the same compound, the MIC [15] was no less than 68.9 µM and the MIC [16] was no less than 68.9 µM.
In the case of `CC(C)C[C@H](NC(=O)[C@@H](N)CC(C)C)C(=O)N[C@@H](CO)C(=O)N[C@@H](CCCN=C(N)N)C(=O)N[C@H](C(=O)N[C@@H](CC(=O)O)C(=O)N[C@@H](CCC(=O)O)C(=O)O)C(C)C` [LLSRVDE], the MIC [17] is reported as no less than 154 µM, the MIC [18] is reported as no less than 154 µM and the MIC [19] is reported as no less than 154 µM. For the same compound, the MIC [20] was no less than 154 µM, the MIC [21] was no less than 154 µM and the MIC [22] was no less than 154 µM. The MIC [5] was greater than 154 µM, the MIC [23] was no less than 154 µM and the MIC [10] was greater than 154 µM. The MIC [24] was no less than 154 µM and the MIC [25] was greater than 154 µM.
Work on `CC(C)C[C@H](NC(=O)[C@H](CC(C)C)NC(=O)[C@H](CCCCN)NC(=O)[C@H](C)NC(=O)[C@H](C)NC(=O)[C@H](C)NC(=O)[C@H](CCCCN)NC(=O)[C@H](C)NC(=O)[C@H](C)NC(=O)[C@H](C)NC(=O)[C@H](CCCCN)NC(=O)[C@H](Cc1c[nH]c2ccccc12)NC(=O)[C@@H](N)CC(C)C)C(N)=O` [LWKAAAKAAAKLL] yielded an MIC [5] of 1 µM (≈ 1.35 µg/mL), an MIC [26] of 8 µM (≈ 10.8 µg/mL) and an MIC (Escherichia coli K88) of 4 µM (≈ 5.41 µg/mL). For the same compound, the MIC (Escherichia coli UB1005) was 8 µM (≈ 10.8 µg/mL), the MIC [9] was 4 µM (≈ 5.41 µg/mL) and the MIC [27] was 32 µM (≈ 43.3 µg/mL). For the same compound, the MIC [25] was 4 µM (≈ 5.41 µg/mL) and the MIC [28] was 4 µM (≈ 5.41 µg/mL).
